For 15 compounds, Ki and IC50 results are on record in US6130215A, “Piperazinylalkylthiopyrimidine derivatives, pharmaceutical compositions containing the same and a process for the preparation of the novel compounds” (Egis Gyoyszergyar RT, priority 1995, dated 2000).

The target of assay [1] is T1, 5-HT2A receptor (Rattus norvegicus, UniProt P14842).
T1 construct: rat brain frontal cortex membrane preparation; from tissue; host or cells: rat brain frontal cortex membrane preparation
Kind of assay: 5-HT2A receptor binding ([3H]ketanserine, rat brain frontal cortex membrane preparation). Particulars: tritiated ketanserine, 37° C., read-out: Inhibition of receptor binding of the radioactive ligand, 5-HT2A (Ki). How it is done:
(§1) 5-HT2A and 5-HT2C receptor binding was measured according to the methods described by Leysen et al. /Mol. Pharmacol., 21, 301 (1981)/ and Pazos et al. /Eur. J. Pharmacol., 106, 539 (1985)/, respectively. 5-HT2A receptor binding was measured in rat brain frontal cortex membrane preparation using tritiated ketanserine /3-/2-(4-fluorobenzoyl)- -1-piperidinyl/ethyl-2,4-(1H,3H)-quinazoline-dione/(60-90 Ci/mmole) as ligand. 5-HT2C receptor binding was measured in pig brain choroid plexus membrane preparation using tritiated mesulergine /N'-/(8)-1,6-dimethyl-ergoline-8-yl/-N,N-dimethylsulfamide (70-85 Ci/mmole) as the ligand. Non-specific binding to 5-HT2A and 5-HT2C receptors were determined in the presence of 10 micro M cyproheptadine/4-(5H-dibenzo/a,d/cycloheptene-5-ylidene)-1-methylpiperidine/ and 1 micro M mianserine/1,2,3,4,10,14b-hexahydro-2-methyldibenzo-/c,f/pyrazino/1,2-a/azepine/, respectively. The final incubation volumes were 250 and 1000 microlitres. Samples were incubated for 15 and 30 minutes at 37° C. Incubation was stopped by adding 9 ml of ice-cold 50 mM tris(hydroxymethyl)-aminomethane hydrochloride (pH=7.7) to the reaction mixture. The samples were rapidly filtered through Whatman GF/B glass fiber filters using reduced pressure. Before use, the filters were soaked in a 0.05% poly-ethyleneimine solution for 2 to 3 hours. Radioactivity of the filters was determined by a scintillation spectrometer.

Assay [2] concerns rat stomach fundus smooth muscle. The assay is described as follows: Inhibition of serotonin-induced contractions of isolated rat stomach fundus smooth muscle. The class given is cell-based, rat (male Wistar). Conditions: 5-HT 10^-7 M, 37° C., read-out: Inhibition of 5-HT-evoked contractions of isolated rat stomach fundus, IC50. How it is done: The experiments were performed on male Wistar rats weighing 350 to 400 g. The animals were fasted for 24 hours before the experiments, however, they were allowed to drink tap water ad libitum. The method used was a modified version of Vane et al. /J. Pharmac. Chemother., 12, 344 (1957)/. The rats were killed by decapitation and their stomach was removed, and 3 mm wide and 20 to 30 mm long strips were cut in parallel with the greatest curvature of the stomach. The strips were incubated for 60 minutes in a 6 ml Lucite chamber filled with Tyrode solution (NaCl 136.9 mM, KCl2.7 mM, CaCl2 1.8 mM, MgCl2 1.0 mM, NaHCO3 11.9 mM, glucose 5.6 mM, NaH2 PO4 0.4 mM) warmed to 37° C. and bubbled with a gas consisting of 95% of oxygen and 5% of carbon dioxide. The strips were stretched with 0.5 g during the 60 minutes equilibration time and were washed every 20 minutes. The tension was measured isometrically by a strain gauge (Hugo Sachs) and was recorded on a Graphtech Mark VII 3101 polygraph.
Three control contractions were evoked by 5-HT added to the bath in 10^-7 M concentration (C1, C2, C3).
The effects of the test compounds were determined in 5 increasing concentrations (T2, T3, T4, T5, and T6). After determining the effect of two concentrations of the test compounds, the control 5-HT response was checked after each test measurement.
(§2) IC50 was calculated by nonlinear curve fitting of the inhibitory effect of increasing concentrations of the test compound.

Assay [3] has as its target T2, 5-HT2A receptor (Oryctolagus cuniculus, UniProt G1SYA7).
T2 construct: The thoracic aorta segment after the aortic arch was removed; from tissue; host or cells: rabbit thoracic aorta, helical strips
Kind of assay: 5-HT2A receptor antagonistic effect: inhibition of 5-HT-evoked contractions on isolated rabbit aortic strips. Particulars: 5-HT 10^-6 M; phenoxybenzamine 10^-8 M; tranylcypramine 10^-7 M; 10 minutes incubation. It counts as cell-based, rabbit (New-Zealand, male, white). As to the method: New-Zealand, male, white rabbits weighing 2.0 to 2.5 kg were killed by a blow on the head. The thoracic aorta segment after the aortic arch was removed and placed into a Krebs' solution (NaCl 118 mM, KCl 4.6 mM, NaHCO3 25 mM, glucose 10.5 mM, […] 1 mM, KH2PO4 1 mM, CaCl2 2.6 mM). The aorta was carefully cleaned from fat and connective tissue, and was cut into 3 mm wide and 30 mm long helical strips. Four strips were obtained from each rabbit. The strips were equilibrated at 37° C. for 60 minutes in an organ chamber filled with Krebs' solution. The strips were also oxygenated by bubbling carbogen gas (5% of carbon dioxide and 95% of oxygen) through the solution. The strips were stretched by 1 g tension.
The contractions were measured by a Hugo Sachs K-30 type strain gauge, and were registered on a Multicorder type polygraph. During the last 40 minutes of the equilibration, the MAO enzym inhibitor tranylcypramine (10^-7 M) /chemical name: (±)-trans-2-phenylcyclopropylamine/ was also added to the bath.
Any alpha-adrenergic effects of the test compounds were eliminated by 10^-8 M of phenoxybenzamine /N-(2-chloroethyl)-N-(1-methyl-2-phenoxyethyl)benzylamine/ /Clancy et al., J. Pharm. Exp. Ther., 233, 761 (1985). Testing of the serotonergic antagonistic effect was started at the 90th minute of incubation. The stability and reproducibility of the contractile response of the aortic strips to serotonin was tested by two consecutive application and wash-out procedures of 10^-6 M concentration of 5-HT, 40 minutes apart. […] 30 minutes after the second testing, a preset concentration of the test compound was added to the bath, and, after a 10 minutes incubation time, the response to 10^-6 M of 5-HT was determined in the presence of the compound to be tested.
Two different concentrations of a given compound were tested on each aortic strip by the above method. Reproducibility of the control 5-HT-evoked response was checked between testing the two concentrations of the compound.
as §2

The next assay concerns the target T3, 5-HT2C receptor (Sus scrofa, UniProt K7GSR7).
T3 construct: pig brain choroid plexus membrane preparation; from tissue; host or cells: pig brain choroid plexus membrane preparation
T3 sequence (K7GSR7 1-457): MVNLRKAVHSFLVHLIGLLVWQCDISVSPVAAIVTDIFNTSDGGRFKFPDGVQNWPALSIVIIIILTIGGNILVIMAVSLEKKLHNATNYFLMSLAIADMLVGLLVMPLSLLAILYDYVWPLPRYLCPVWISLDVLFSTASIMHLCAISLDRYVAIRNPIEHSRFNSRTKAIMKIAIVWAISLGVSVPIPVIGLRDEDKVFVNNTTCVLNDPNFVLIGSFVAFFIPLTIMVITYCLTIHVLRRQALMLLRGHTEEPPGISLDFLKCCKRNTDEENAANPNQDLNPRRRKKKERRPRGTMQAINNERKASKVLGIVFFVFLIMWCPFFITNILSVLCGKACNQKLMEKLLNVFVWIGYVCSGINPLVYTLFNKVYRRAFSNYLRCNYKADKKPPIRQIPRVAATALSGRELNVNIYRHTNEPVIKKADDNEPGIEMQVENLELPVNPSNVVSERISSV
The assay is described as follows: 5-HT2C receptor binding ([3H]mesulergine, pig brain choroid plexus membrane preparation). Conditions: tritiated mesulergine, 37° C., read-out: Inhibition of receptor binding of the radioactive ligand, 5-HT2C (Ki). How it is done: as §1

T1 sequence (P14842 whole entry): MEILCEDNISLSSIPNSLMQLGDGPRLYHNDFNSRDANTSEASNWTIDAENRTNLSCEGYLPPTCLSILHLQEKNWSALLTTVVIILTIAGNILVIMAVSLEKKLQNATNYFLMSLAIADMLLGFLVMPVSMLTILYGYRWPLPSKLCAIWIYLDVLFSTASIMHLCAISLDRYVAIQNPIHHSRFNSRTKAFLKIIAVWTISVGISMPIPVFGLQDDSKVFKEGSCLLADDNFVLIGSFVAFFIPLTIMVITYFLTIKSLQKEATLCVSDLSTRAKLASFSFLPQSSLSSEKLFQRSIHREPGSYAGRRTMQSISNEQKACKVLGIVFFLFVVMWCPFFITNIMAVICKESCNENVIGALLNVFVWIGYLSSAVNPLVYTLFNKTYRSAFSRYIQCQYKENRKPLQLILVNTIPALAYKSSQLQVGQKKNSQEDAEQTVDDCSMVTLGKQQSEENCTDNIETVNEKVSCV
T2 sequence (G1SYA7 1-469): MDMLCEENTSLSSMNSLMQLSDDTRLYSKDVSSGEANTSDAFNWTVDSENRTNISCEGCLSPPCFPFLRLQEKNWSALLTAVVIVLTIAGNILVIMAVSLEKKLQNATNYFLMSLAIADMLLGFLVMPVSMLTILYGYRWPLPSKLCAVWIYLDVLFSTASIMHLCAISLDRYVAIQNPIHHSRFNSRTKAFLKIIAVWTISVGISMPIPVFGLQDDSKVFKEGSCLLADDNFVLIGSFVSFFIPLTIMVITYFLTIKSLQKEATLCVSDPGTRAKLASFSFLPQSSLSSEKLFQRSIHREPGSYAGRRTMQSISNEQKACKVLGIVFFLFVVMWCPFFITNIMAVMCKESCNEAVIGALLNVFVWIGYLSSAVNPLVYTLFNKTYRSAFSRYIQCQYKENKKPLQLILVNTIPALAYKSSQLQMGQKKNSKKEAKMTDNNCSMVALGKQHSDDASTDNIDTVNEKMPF

`Nc1nc(SCCN2CCN(Cc3ccc([N+](=O)[O-])cc3)CC2)nc(N)c1Cc1ccc(F)cc1` [Example 20, 2-[2-/4-(4-Nitrobenzyl)-1-piperazinyl/-ethylthio]-4,6-diamino-5-(4-fluorobenzyl)-pyrimidine]: the Ki was 0.203 µM at 5-HT2A receptor [1] and greater than 0.1 µM at 5-HT2C receptor. The IC50 in assay [2] was found to be 0.56 µM; against 5-HT2A receptor [3] it was 1.5 µM.
Regarding `COc1ccc(Cc2c(N)nc(SCCN3CCN(Cc4ccccc4F)CC3)nc2N)cc1` [Example 25, 2-[2-/4-(2-Fluorobenzyl)-1-piperazinyl/-ethylthio]-4,6-diamino-5-(4-methoxybenzyl)-pyrimidine], the Ki on 5-HT2A receptor [1] is 0.02 µM; at 5-HT2C receptor, greater than 0.1 µM. Also, the midpoint of inhibition against 5-HT2A receptor [3], the IC50, lay at 0.28 µM.
For `COc1ccc(Cc2c(N)nc(SCCN3CCN(Cc4cccc(C#N)c4)CC3)nc2N)cc1` [Example 26, 2-[2-/4-(3-Cyanobenzyl)-1-piperazinyl/-ethylthio]-4,6-diamino-5-(4-methoxybenzyl)-pyrimidine], the Ki turned out to be 0.048 µM on 5-HT2A receptor [1] and 0.045 µM at 5-HT2C receptor. Moreover, inhibition against 5-HT2A receptor [3] was half-maximal at 0.26 µM (IC50).
On the same counts, the results for `COc1cccc(CN2CCN(CCSc3nc(N)c(Cc4ccccc4OC)c(N)n3)CC2)c1` [Example 31, 2-[2-/4-(3-Methoxybenzyl)-1-piperazinyl/-ethylthio]-4,6-diamino-5-(2-methoxybenzyl)-pyrimidine] are greater than 0.1 µM, 0.021 µM and 0.73 µM.
On to `COc1cccc(CN2CCN(CCSc3nc(N)c(Cc4ccccc4Cl)c(N)n3)CC2)c1` [Example 44, 2-[2-/4-(3-Methoxybenzyl)-1-piperazinyl/-ethylthio]-4,6-diamino-5-(2-chlorobenzyl)-pyrimidine], for which the Ki was 0.093 µM at 5-HT2A receptor [1] and greater than 0.1 µM at 5-HT2C receptor. In addition, at 5-HT2A receptor [3], the IC50 came to 0.65 µM.
For `Nc1nc(SCCN2CCN(Cc3ccccc3Cl)CC2)nc(N)c1Cc1ccccc1Cl` [Example 45, 2-[2-/4-(2-Chlorobenzyl)-1-piperazinyl/ethylthio]-4,6-diamino-5-(2-chlorobenzyl)-pyrimidine] the same measures were 0.027 µM, 0.025 µM and 0.43 µM.
As for `Nc1nc(SCCN2CCN(Cc3ccc([N+](=O)[O-])cc3)CC2)nc(N)c1Cc1ccc(Cl)cc1` [Example 48, 2-[2-/4-(4-Nitrobenzyl)-1-piperazinyl/-ethylthio]-4,6-diamino-5-(4-chlorobenzyl)-pyrimidine], the IC50 in assay [2] came to 0.42 µM.
Consider `CN(C)c1ccc(Cc2c(N)nc(SCCN3CCN(Cc4ccccc4F)CC3)nc2N)cc1` [Example 53, 2-[2-/4-(2-Fluorobenzyl)-1-piperazinyl/-ethylthio]-4,6-diamino-5-(4-dimethylamino-benzyl)pyrimidine], for which the Ki is 0.015 µM on 5-HT2A receptor [1] and greater than 0.1 µM at 5-HT2C receptor. This compound also returned an IC50 on 5-HT2A receptor [3] of 0.47 µM.
On the same counts, the results for `CN(C)c1ccc(Cc2c(N)nc(SCCN3CCN(Cc4cccc(Cl)c4)CC3)nc2N)cc1` [Example 56, 2-[2-/4-(3-Chlorobenzyl)-1-piperazinyl/-ethylthio]-4,6-diamino-5-(4-dimethylamino-benzyl)pyrimidine] are 0.038 µM, 0.057 µM and 0.9 µM.
For the compound `Nc1nc(SCCN2CCN(Cc3ccc([N+](=O)[O-])cc3)CC2)nc(N)c1Cc1ccc(Br)cc1` [Example 64, 2-[2-/4-(4-Nitrobenzyl)-1-piperazinyl/-ethylthio]-4,6-diamino-5-(4-bromo-benzyl)pyrimidine], the IC50 in assay [2] came out at 0.68 µM.
As for `COc1cccc(CN2CCN(CCSc3nc(N)c(Cc4cc(OC)c(OC)c(OC)c4)c(N)n3)CC2)c1` [Example 65, 2-[2-/4-(3-Methoxybenzyl)-1-piperazinyl/-ethylthio]-4,6-diamino-5-(3,4,5-trimethoxy-benzyl)pyrimidine], the Ki is 0.034 µM on 5-HT2A receptor [1] and 0.042 µM on 5-HT2C receptor. The half-inhibitory concentration (IC50) against 5-HT2A receptor [3] is 0.17 µM.
On the same counts, the results for `COc1cc(Cc2c(N)nc(SCCN3CCN(Cc4ccccc4Cl)CC3)nc2N)cc(OC)c1OC` [Example 67, 2-[2-/4-(2-Chlorobenzyl)-1-piperazinyl/-ethylthio]-4,6-diamino-5-(3,4,5-trimethoxy-benzyl)pyrimidine] are 0.0046 µM, 0.0086 µM and 0.039 µM.
In the case of `COc1cc(Cc2c(N)nc(SCCN3CCN(Cc4ccc([N+](=O)[O-])cc4)CC3)nc2N)cc(OC)c1OC` [Example 68, 2-[2-/4-(4-Nitrobenzyl)-1-piperazinyl/-ethylthio]-4,6-diamino-5-(3,4,5-trimethoxy-benzyl)pyrimidine], the results for the Ki at 5-HT2A receptor [1] and at 5-HT2C receptor were 0.021 µM and greater than 0.1 µM, respectively. For the same compound, on 5-HT2A receptor [3], the midpoint of inhibition, the IC50, lay at 0.78 µM.
On the same counts, the results for `COc1cc(Cc2c(N)nc(SCCN3CCN(Cc4cccc(C(F)(F)F)c4)CC3)nc2N)cc(OC)c1OC` [Example 69, 2-[2-/4-(3-Trifluoromethylbenzyl)-1-piperazinyl/ethylthio]-4,6-diamino-5-(3,4,5-trimethoxybenzyl)pyrimidine] are 0.038 µM, 0.026 µM and 0.096 µM.
On to `COc1ccc(Cc2c(N)nc(SCCN3CCN(Cc4ccccc4Cl)CC3)nc2N)cc1` [Example 72, 2-[2-/4-(2-Chlorobenzyl)-1-piperazinyl/-ethylthio]-4,6-diamino-5-(4-methoxy-benzyl)pyrimidine], for which the Ki was 0.024 µM on 5-HT2A receptor [1] and 0.02 µM at 5-HT2C receptor. The IC50 against 5-HT2A receptor [3] was found to be 0.084 µM.
